Source: patent US8143254B2, “Methods for modulating ion channels” (Cornell Research Foundation, Inc., priority 2005, dated 2012)

Experiments:
Kv2.1 = biological target: T1, Kv2.1 (Rattus norvegicus, UniProt P15387); test: Two-electrode voltage clamp (TEVC) of Xenopus oocytes expressing Kv2.1, bath-applied compound; assay type: cell-based; conditions: for effect on Kv2.1 currents: 1 mM, bath applied
T1 construct: expressed in transfected cells; host or cells: Xenopus laevis oocytes (cRNA injection, pGA1 vector)
T1 sequence (P15387 whole entry): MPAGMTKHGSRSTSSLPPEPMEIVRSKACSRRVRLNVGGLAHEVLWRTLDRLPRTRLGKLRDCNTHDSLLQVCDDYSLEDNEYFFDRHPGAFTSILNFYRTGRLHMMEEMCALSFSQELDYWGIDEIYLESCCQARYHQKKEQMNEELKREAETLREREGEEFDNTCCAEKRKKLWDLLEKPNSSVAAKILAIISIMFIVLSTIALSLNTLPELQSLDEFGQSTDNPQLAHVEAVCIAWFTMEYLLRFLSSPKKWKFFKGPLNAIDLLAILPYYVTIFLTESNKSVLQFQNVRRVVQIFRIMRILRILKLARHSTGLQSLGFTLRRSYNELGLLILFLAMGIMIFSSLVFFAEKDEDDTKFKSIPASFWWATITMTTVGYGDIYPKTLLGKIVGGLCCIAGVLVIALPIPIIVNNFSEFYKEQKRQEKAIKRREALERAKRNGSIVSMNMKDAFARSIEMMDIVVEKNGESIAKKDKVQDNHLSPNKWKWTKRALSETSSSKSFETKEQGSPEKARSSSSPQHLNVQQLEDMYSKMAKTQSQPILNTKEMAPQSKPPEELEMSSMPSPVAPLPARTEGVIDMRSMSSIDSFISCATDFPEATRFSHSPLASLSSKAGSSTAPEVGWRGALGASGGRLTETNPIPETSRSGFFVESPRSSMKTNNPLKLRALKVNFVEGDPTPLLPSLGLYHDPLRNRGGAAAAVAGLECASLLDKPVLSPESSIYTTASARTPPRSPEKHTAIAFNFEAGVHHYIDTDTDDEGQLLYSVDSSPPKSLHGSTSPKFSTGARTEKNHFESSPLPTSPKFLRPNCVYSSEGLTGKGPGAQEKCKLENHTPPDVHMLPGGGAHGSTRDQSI
Source text: The ion channel subunit genes are in expression vectors that facilitate in vitro transcription of channel cRNA using the Ambion mMessage mMachine in vitro transcription kit. cDNA constructs are column-purified, linearized with the appropriate restriction enzyme that cuts a single site following the polyA tail, then purified by precipitation and transcribed in vitro using a promoter, such as T7, T3 and SP6. Transcribed cRNA is purified by precipitation and resuspended in RNAse-free water ready for injection. Each transcription can provide enough cRNA for several months of experiments.
Stage V-VI Xenopus oocytes are separated into small groups using forceps, defolliculated by agitation in Ca^2+-free Ringer solution containing collagenase for one hour, washed, then stored at 15° C. in full Ringers solution before injection. cRNA sufficient to give 1-10 μA of current at physiological voltages for each channel type is injected into Xenopus oocytes (selected by appearance for overall health and uniformity of color) using a Sutter manual injector (typically 0.1-5 ng cRNA in a volume of 25-50 nl). The oocytes are then stored for 1-3 days at 15° C. before TEVC recording. Beta subunit cRNA is co-injected as appropriate, typically 2 ng per oocyte.
Whole cell oocyte experiments are performed using a Warner OC-725C amplifier and pClamp9 software with oocytes bathed in a small-volume Warner oocyte bath and viewed with a Fisher dissection microscope. Bath solution for whole cell oocyte recordings, e.g., for potassium channel analysis, is generally (in mM): 96 NaCl, 4 KCl, 1 MgCl2, 0.3 CaCl2, 10 HEPES (Ph 7.4); whole-cell oocyte TEVC pipettes are filled with 3 M KCl. Oocyte patches are studies using an Axon Instruments small-volume bath, viewed with an Olympus IX50 inverted microscope, and recordings made using an Axon Multiclamp 700 A Amplifier and pCLAMP9 software (Axon Instruments). Extracellular solution, e.g., for potassium channel analysis, is generally (in mM): 135 NaCl, 5 KCl, 1.2 MgCl2, 5 HEPES, 2.5 CaCl2, 10 D-glucose (Ph 7.4). Intracellular solution, e.g., for potassium channel analysis, is generally (in mM): 10 NaCl, 117 KCl, 2 MgCl2, 11 HEPES, 11 EGTA, ICaCl2 (Ph 7.2). Patch pipettes are approximately 3-5 MΩ resistance when filled with recording solution.
Quantitative aspects of ion action on ion channels are compared using standard pulse protocols. Pulse times and voltages will vary according to which currents are being studied. […] Drug inhibition constants are calculated after generating a dose response curve by fitting with a logistic dose-response function (see equation (i) below). Typically, 5-20 cells per group are recorded from for heterologous expression experiments. Values are to be stated as mean±SEM with statistical significance set at p<0.05 (unpaired students t-test, ANOVA or the Mann-Whitney Rank Sum Test as appropriate).
Injected oocytes, bathed in bath solution containing 4 mM KCl, unless otherwise stated, are impaled with current and voltage electrodes and clamped at −80 mV holding potential using a Warner OC-725C amplifier. […] Drug concentrations are chosen to ensure inhibition values between 0 and 90-100% with at least 3 values within the linear portion of the curve so that the inhibition constant (Ki) can be calculated accurately by fitting with a logistic dose-response function (formula (i)) using the Origin 6.1 graph package.
Kv2.1 mutants were constructed using the QuickChange Multi Site-Directed Mutagenesis Kit (Stratagene, La Jolla, Calif.). […] For oocyte expression, Kv3.4 was in pBF1, Kv4.2 was in pRAT. cRNA transcripts were produced from SacII-linearized (Kv2.1), Mlullinearized (Kv3.4) and Not1-linearized (Kv4.2) DNA templates using the T3 (Kv2.1), SP6 (Kv3.4) and T7 (Kv4.2) mMessage mMachine kits (Ambion, Austin, Tex.). cRNA was quantified by spectrophotometry and its size integrity verified by gel electophoresis.

Kv3.4 = biological target: T2, Kv3.4 (UniProt Q63734); test: TEVC of X. laevis oocytes expressing Kv3.4; assay type: cell-based; conditions: 1 mM, bath applied
T2 construct: IC50; other: Kv3.4, logistic dose response fit; effect on Kv3.4 currents; other: 1 mM, bath applied; slope of dose response curve; other: Kv3.4
T2 sequence (Q63734 1-625): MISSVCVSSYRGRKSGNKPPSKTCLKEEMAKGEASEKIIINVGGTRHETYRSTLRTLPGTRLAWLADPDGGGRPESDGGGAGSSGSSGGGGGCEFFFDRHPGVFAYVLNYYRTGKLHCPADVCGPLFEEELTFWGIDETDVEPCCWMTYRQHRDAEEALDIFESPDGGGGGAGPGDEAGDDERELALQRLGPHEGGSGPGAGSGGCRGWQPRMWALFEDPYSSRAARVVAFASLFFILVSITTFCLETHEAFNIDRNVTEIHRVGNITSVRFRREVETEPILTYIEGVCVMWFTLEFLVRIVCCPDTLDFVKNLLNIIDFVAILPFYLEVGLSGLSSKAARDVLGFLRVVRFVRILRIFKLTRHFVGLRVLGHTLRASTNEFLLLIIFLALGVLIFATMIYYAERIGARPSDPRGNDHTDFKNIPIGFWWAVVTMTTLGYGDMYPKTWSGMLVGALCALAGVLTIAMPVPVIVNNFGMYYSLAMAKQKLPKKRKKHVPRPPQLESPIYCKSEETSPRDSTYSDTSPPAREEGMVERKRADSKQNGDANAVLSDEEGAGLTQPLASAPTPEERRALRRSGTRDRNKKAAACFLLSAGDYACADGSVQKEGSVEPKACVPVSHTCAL
Source text: Kv2.1 mutants were constructed using the QuickChange Multi Site-Directed Mutagenesis Kit (Stratagene, La Jolla, Calif.). […] For oocyte expression, Kv3.4 was in pBF1, Kv4.2 was in pRAT. cRNA transcripts were produced from SacII-linearized (Kv2.1), Mlullinearized (Kv3.4) and Not1-linearized (Kv4.2) DNA templates using the T3 (Kv2.1), SP6 (Kv3.4) and T7 (Kv4.2) mMessage mMachine kits (Ambion, Austin, Tex.). cRNA was quantified by spectrophotometry and its size integrity verified by gel electophoresis. Defolliculated stage V and VI Xenopus laevis oocytes (purchased from Nasco, Grand Island, N.Y.) were injected with 5 ng of cRNA encoding Kv2.1, Kv3.4 or Kv4.2. Chinese Hamster Ovary (CHO) cells were transfected with 0.25 μg Kv2.1 cDNA, 2 μg blank plasmid and 2 μg Green fluorescent Protein in pBOB using Supetfect transfection reagent (Qiagen) 24 hours before whole-cell voltage clamp studies.
Oocytes were bathed in a small-volume Warner oocyte bath and viewed with a Fisher dissection microscope. Bath solution for whole-cell oocyte recordings was (in mM): 96 NaCl, 4 KCl, 0.7 MgCl2, 1 CaCl2, 10 HEPES (pH 7.4); whole-cell oocyte TEVC pipettes were of 0.2-2 M resistance when filled with 3 M KCl. Experiments were performed 24-48 hours after cRNA injection. For assessment of current-voltage relationships in the absence or presence of dabco derivatives, oocytes were held at −80 mV, stepped for 2 seconds at voltages between −80 mV and +60 mV in 20 mV steps (Kv2.1) or between −80 and +50 mV in 10 mV steps (Kv3.4), then held for 500 ms at −40 mV before returning to the holding potential. For assessment of block during wash-in of dabco derivatives at a single voltage, oocytes were held at −80 mV, and repetitively stepped to 0 mV for 2 s with an interpulse interval of 10 s or 60 s as indicated. A range of concentrations of dabco or dabco derivatives were washed in via the bath solution during repetitive single-voltage pulses (after an initial period of 5 pulses with control solution to ensure current stabilization) until equilibrium block was achieved, to establish dose-responses. […] Washout was performed after the highest concentration of blocker was washed in. In cases where washout was achieved, only those recordings in which current returned to within 10% of original current level were used for construction of dose-response curves. […] As controls for this protection analysis, JC638.2a or MTSET were washed in alone until equilibrium block, then washed out.
Data analysis: Current-voltage relationships were obtained by measuring peak current during depolarizing pulses. Inhibition constants for DABCO blockers were calculated after generating a dose response curve by fitting with a logistic dose-response function y=A2+[A1−A2/1+(x/x0)^p], where A1 is the maximum response plateau, A2 is the minimum response plateau, x is drug concentrator, x0 is the IC50, and p the Hill slope. Data analysis was performed using […] 9 (Axon Instruments, Foster City, Calif.) and tabulated in Excel 5.0. Graphs were generated using Origin 6.1. Data are expressed as mean±SEM, with n specifying the number of independent experiments. Statistical significance was assessed by one-way ANOVA with p<0.05 being indicative of significance.

For `C1CN2CCN1CC2` [DABCO, 1,4-diazabicyclo[2.2.2]octane, reference compound], the “effect on Kv2.1 currents” value (Kv2.1) was “no effects” and the “effect on Kv3.4 currents” value (Kv3.4) was “no effects”.
`C(CCCCCC[N+]12CCN(CC1)CC2)CCCCC[N+]12CCN(CC1)CC2` [TG28, 1,12-[bis(4-aza-1-azoniabicyclo[2.2.2]octanyl)]dodecane] was tested, and the “effect on Kv2.1 current during wash-in” value (Kv2.1; 250 μM TG28, 0 mV) was “rapid reduction of current (block) followed by slow, partial restoration of current (partial opening)”, the “Kv2.1 current level after washout relative to pre-drug current” value (Kv2.1; 250 μM TG28 washed out, on average) was “two-fold larger than the pre-drug current” and the “effect on Kv2.1 currents” value (Kv2.1) was “block”.
